Laboratory results taken from US9259453B2, “Use of salmonella flagellin derivative in preparation of drug for preventing and treating inflammatory bowel diseases” (priority 2011, dated 2016).
Entries after “also recorded” stand apart in the source; their conditions may differ.

How the values were obtained:
[1] = test system: IBD patients; conditions: cited from earlier work
[2] = test system: TLR family; test: Expression of TLR family in colon by RT-PCR after treatment in TNBS modeling; assay type: in vivo, BALB/c mice; conditions: 3.2 mg/kg 4 h after TNBS
Excerpt: The colon samples were removed at the indicated times, washed with phosphate-buffered saline (pH 7.2), and cut in small pieces. Total RNA of colon samples what were control group, modeling group and treatment group were extracted by Total RNA kits II (Omega, Japan) according to the manufacturers' instructions, and then reverse-transcribed by the Reverse Transcription System (Sigma, USA). Subsequently, the TLRs and β-actin were amplified by PCR using the following primers (Table 1). The reaction system of PCR was 500, Ex Taq 0.250, 10× buffer 5 μl, dNTP 5 μl, template 2 μl, the upstream and downstream primers 1 μl, ddH2O 35.75 μl. The reaction condition of PCR is 95° C. 5 min, 95° C. 45 sec, 62° C. 45 sec, 72° C. 1 min, total 25 cycles, and then 72° C. 5 min. PCR products were identified on 2% agarose-gel electrophoresis followed by image analysis software.

[3] = statement, no test described; cited from earlier work
[4] = test system: mice with ulcerative colitis in TNBS modeling; test: Prevention of TNBS-induced IBD in mice, Example 3; assay type: in vivo, BALB/c mice
Method: Experimental Animals: the same as in Example 2.
Reagents: the same as in Example 2.
Model preparation: the same as in Example 2.
Experimental animal groups: model group, prevention group and control group (n=8). The prevention group: BALB/c mice were treated therapeutically with CBLB502 (3.2 mg/kg) before TNBS administration, and then the mice were given TNBS and normal feeding two days. The model group was normal feeding two days after TNBS administration. The control mice received 38% ethanol alone by using the same method described above, and normal feeding.
Test contents and test methods: the same as in Example 2.

[5] = test system: mice with ulcerative colitis in TNBS modeling; test: Treatment of TNBS-induced ulcerative colitis (IBD) in mice, Example 2; assay type: in vivo, BALB/c mice
Method: Experimental Animal: Male BALB/c mice (7-8 weeks old, 25±5 g) were obtained from Experimental Animal Center of Academy of Military Medical Sciences (Beijing, China). Mice were provided sterile food and water, and 12 h light/12 h dark cycle. All animal experiments were approved by the Institutional Animal Care and Use Committee at Academy of Military Medical Sciences.
Reagents: 2,4,6-trinitrobenzene sulfonic acid (TNBS, were purchased from Sigma Chemical Co.), CZLC331 (prepared in Example 1), RT PCR kit (ID isFSK100, purchased from Toyobo Biotechnology Co., Ltd.).
Model preparation: Mice (hunger for 36 h) were anesthetized with isoflurane using anesthesia machine. To induce IBD, 150 mg/kg of TNBS (Sigma-Aldrich) in 38% ethanol (to break the intestinal epithelial barrier) was administered by the mouse gavage needle equipped with a 1 ml syringe, what the diameter of silicone tube is 2. 0 mm and the length is about 10 cm, the gavage needle was advanced into the rectum until the tip was 4 cm proximal to the anal verge. The total injection volume was 100 μl.
Experimental animal groups: model group, treatment group and control group (n=8). The control mice received 38% ethanol alone by using the same method described above, and normal feeding two days. The treatment group: BALB/c mice were treated therapeutically with CBLB502 (3.2 mg/kg) at 0.5 h after TNBS administration. At the same time, BALB/c mice were treated therapeutically with CBLB502 (0.2-6.4 mg/kg) from 0.5 h to 8 h after TNBS administration, and normal feeding two days. The mice of model group were normal feeding two days after TNBS administration.
Mice were monitored for the appearance of diarrhea, changes of body weight, and overall mortality. At the end of the experiment after TNBS administration two days, surviving mice were killed, blood samples were collected by cardiac puncture, and a 7-cm segment of the colon was excised for macroscopic (FIG. 1, FIG. 4 left, and FIG. 5) and microscopic damage evaluation (FIG. 2, FIG. 4 right, and FIG. 6). And the end of the colon after washing using physiological saline was kept at −80° C. frozen for follow-up testing.
2. Histological examination: The colonic samples were fixed in 4% buffered formalin overnight and then transferred to 70% ethanol, embedded in paraffin for sectioning, and then stained with hematoxylin and eosin (H&E) to examine the histological differences.

[6] = given 0.5 h before TNBS modeling, two days, versus model group

| Compound | side effects ([1]; after taking the drug) | effective rate ([1]; clinical drug) | markedly effective rate ([1]; clinical drug) [%] | onset (time until symptoms improved) ([1]; clinical) | expression of TLR6 ([2]; raised in model group) | expression of TLR7 ([2]; raised in model group) | expression of TLR8 ([2]; raised in model group) | expression of TLR family ([2]; versus model group) | side effects [3] | toxicity [3] | clinical signs: blood in the stool, eat less, move less [4, 6] | colon: congestion, edema, hemorrhage [4, 6] | prevention of IBD (overall) ([4]; given before TNBS modeling) | clinical signs: blood in the stool, feeding/water intake, activity ([5]; 0.2-6.4 mg/kg intraperitoneal, 0.5 h to 8 h after TNBS, two days, versus model group) | colon appearance: congestion, edema, hemorrhage, ulcers ([5]; 0.2-6.4 mg/kg, 0.5 h to 8 h after TNBS, two days, versus model group) | colonic mucosa HE staining: cell structure, goblet cells, lymphocyte and neutrophil infiltration ([5]; 0.2-6.4 mg/kg, 0.5 h to 8 h after TNBS, versus model group) | cure rate ([5]; TNBS mice, intraperitoneal CZLC331) [%] | onset (time after administration to effect) ([5]; examples 2 and 3, all animals) [h] | effective rate ([5]; improvement of feeding, activity and blood in stool, all animals of treatment group and prevention group (examples 2 and 3)) [%] | effective rate of recovered colon mucosa ([5]; treatment group) [%] |
| --- | --- | --- | --- | --- | --- | --- | --- | --- | --- | --- | --- | --- | --- | --- | --- | --- | --- | --- | --- | --- |
| O=C(O)c1cc(/N=N/c2ccc(S(=O)(=O)Nc3ccccn3)cc2)ccc1O [sulfasalazine] | nausea, rash, neutropenia | about 90% | 50 | about two | – | – | – | – | – | – | – | – | – | – | – | – | – | – | – | – |
| CZLC331: Salmonella flagellin derivative, SEQ ID NO: 3: Tat protein transduction peptide plus flagellin residues 1-176 and 402-505 joined by flexible linker; 331 amino acids | – | – | – | – | no significant differences | no significant differences | would change | significant differences with the model group | no significant side effects | non-toxic | reduced | began reduce | protective effects | feeding/water intake of mice return to normal, the activities increased significantly and reduce blood in the stool; also recorded: reduced | significantly reduced; also recorded: began reduce | significantly reduced; also recorded: structures of cells were arranged in neat, a small number of goblet cells and lymphocyte and neutrophil infiltration were disappeared; also recorded: well results for treating | 70 | 24 | 100 | 75 |
